Assay results published in patent publication US6352959B1, “Thiochromanoylpyrazolone derivatives” (BASF Aktiengesellschaft, priority 1998, dated 2002).

Experiments:
Setaria viridis = experiment: greenhouse herbicidal test; assay type: in vivo; settings: rate and mode not restated in the sentence
Text: (§1) The seeds of the test plants were sown separately for each species. For the post-emergence treatment, the test plants were first grown to a plant height of from 3 to 15 cm, depending on the plant habit, and only then treated with the active ingredients which had been suspended or emulsified in water. For this purpose, the test plants were either sown directly and grown in the same containers, or they were first grown separately as seedlings and transplanted into the test containers a few days prior to treatment. The application rate for the post-emergence treatment was 0.25 or 0.125 kg of a.s. (active substance) per ha. Depending on the species, the plants were kept at from 10 to 25° C. or from 20 to 35° C. The test period extended over 2 to 4 weeks. During this time, the plants were tended and their response to the individual treatments was evaluated. Evaluation was carried out using a scale from 0 to 100. 100 means no emergence of the plants, or complete destruction of at least the above-ground parts, and 0 means no damage or normal course of growth. [table]

Sinapis alba = experiment: greenhouse herbicidal test; assay type: in vivo; settings: rate and mode not restated in the sentence
Text: as §1

Polygonum persicaria = experiment: greenhouse herbicidal test; assay type: in vivo; settings: rate and mode not restated in the sentence
Text: as §1

Avena fatua = experiment: greenhouse herbicidal test; assay type: in vivo; settings: rate and mode not restated in the sentence
Text: as §1

melting point: 84 °C
SMILES: CCCOCc1c(C(=O)c2cnn(C)c2O)ccc2c1S(=O)(=O)CCC2(C)C [Compound 2.17, 4-{[4,4-Dimethyl-8-propoxymethyl-1,1-dioxothiochroman-7-yl]-carbonyl}-5-hydroxy-1-methylpyrazole]
activity against the weed (Setaria viridis): very good activity
activity against the weed (Sinapis alba): very good activity
activity against the weed (Polygonum persicaria): very good activity
activity against the weed (Avena fatua): very good activity
